Broadly, the IC50 is the concentration at which inhibition is half-maximal. As a reminder, the AUC(0-t) is the area under the concentration-time curve up to a stated or last time point. Read a high AUC(0-t) as high exposure. As usually defined, the Vd is a proportionality between amount in the body and measured concentration, not a real space. Lower therefore signals little distribution into tissue. For orientation: clearance means the rate of elimination divided by the concentration. A higher clearance goes with efficient removal. By half-life is commonly meant how long it takes for the measured level to halve. Lower therefore signals rapid decline. As a reminder, the Cmax is the maximum level reached in the sampled fluid or tissue. Broadly, the Tmax is the time from dosing to the highest level.

The record followed here is patent publication US20230357241A1, “1H-PYRROLO[2,3-C]PYRIDINE COMPOUNDS AND APPLICATION THEREOF” (MEDSHINE DISCOVERY INC., priority 2020, published 2023).

For one data set, the target named is CYP2C9 (Homo sapiens (Human), UniProt P11712). The data set can be described thus: Cytochrome enzyme inhibition study, CYP2C9. Format: in vitro ADME. Particulars: human liver microsomes, mixed probe substrate; read-out: CYP inhibition (IC50, μM) 2C9. On the procedure:
(§1) A mixed probe substrate of CYP isoenzymes were used to evaluate the inhibitory effect of test compounds on human liver microsomal cytochrome P450 isoenzymes (CYP1A2, CYP2C9, CYP2C19, CYP2D6 and CYP3A4). The test compounds were prepared into 10 mM stock solutions with DMSO. A 178 μL solution of human liver microsome and substrate mixture was added to the non-inhibitor control (NIC) and test compound wells of the reaction plate and the reaction was then placed on ice. 2 μL of blank solvent and test compound working solution were taken from the dilution plate, and added to the reaction plate (at final concentrations of 0.05-50 μM). The reaction plate was prewarmed in a 37±0.2° C. water bath for 10 min. 20 μL of the cofactor solution was taken by a liquid treatment workstation and added into the reaction plate to initiate the reaction. After 10 min, 400 μL of terminating solution was added to the reaction plate to terminate the reaction, and the reaction plate was incubated on ice for 5 min. […] The peak areas of the substrate and the product were detected by liquid chromatography-mass spectrometer (LC/MS/MS). […] The peak area ratio of the metabolite generated by the probe substrate to the internal standard was determined by liquid chromatography-mass spectrometer (LC-MS/MS). […] IC50 values were calculated by a three-parameter or four-parameter sigmoidal logarithmic equation. […]
In general terms: Liver microsomes are vesicles of endoplasmic reticulum, rich in cytochrome P450 enzymes.

The target in the next data set is CYP2D6 (Homo sapiens (Human), UniProt P10635). In words: Cytochrome enzyme inhibition study, CYP2D6. It is filed as in vitro ADME. Particulars: human liver microsomes, mixed probe substrate; read-out: CYP inhibition (IC50, μM) 2D6. The method, then:
as §1

For the next data set, the target named is CYP2C19 (Homo sapiens (Human), UniProt P33261). In words: Cytochrome enzyme inhibition study, CYP2C19. Format: in vitro ADME. Particulars: human liver microsomes, mixed probe substrate; read-out: CYP inhibition (IC50, μM) 2C19. On the procedure:
as §1

The target of the next data set is CYP3A4 (Homo sapiens (Human), UniProt P08684). In words: Cytochrome enzyme inhibition study, CYP3A4. It is filed as in vitro ADME. Particulars: human liver microsomes, mixed probe substrate; read-out: CYP inhibition (IC50, μM) 3A4. On the procedure: as §1
For data set [1], the system named is Ba/F3-TEL-CSF1R cell in situ graft tumor. In words: In vivo pharmacodynamic study, Ba/F3-TEL-CSF1R cell in situ graft tumor model (splenomegaly). Conditions: for efficacy in TEL-CSF1R-BaF3 cell splenomegaly assay: p.o., QD. More on the design: species or system nu/nu mice. The method, then:
The in vivo efficacy of compound 1 hydrochloride on Ba/F3-TEL-CSF1R cell in situ graft tumor model was evaluated.
• Cell culture: Ba/F3-TEL-CSF1R cells were cultured in 1640 medium (Biological Industries)+10% fetal bovine serum (BI)+1% dual antibiotic solution (Penicilin Streptomycin Solution, Coring, USA) at 37° C. at 5% CO2 and passaged twice a week. When the saturation reached 80%-90% and met the requirement, the cells were collected, counted and grafted. • Animals: 28 nu/nu mice, female, aged 6-8 weeks, 18-22 g, supplied by Beijing Vital River Laboratory Animal Technology Co., Ltd. • Tumor grafting: 0.2 mL of Ba/F3-TEL-CSF1R cell suspension (2×10^6 cells) was grafted into each mouse through tail vein injection, and the mice were randomized by weight on day 10. • Grouping and dosing regimens
The animals were housed in SPF animal rooms in independent cages with air supply, and each cage contained no more than 5 animals. • ? Temperature: 20-26° C. • ? Humidity: 35%-75% • ? Illumination: 12 h/12 h light/darkness cycle • ? Corn core padding, changed once a week • ? […] Labeling: ear cutting. • Grouping: The subcutaneous tumor-bearing state was observed every day after grafting; the body weight and tumor volume were measured before grouping, and the mice were randomized according to the data. • Observation: The drafting and any modification of the protocol were approved by the Ethics
Committee of Laboratory Animal Welfare of Precision Preceding Do Co., Ltd. (Hefei, China). Animals were monitored daily for health and mortality, including, for example, tumor growth, mobility, diet, weight, eye, hair and other abnormal behaviors, appearance, signs or other abnormalities. The numbers of deaths and adverse events in the groups were recorded based on the number of animals. • Parameters: The body weights were measured and animal survival rate observed daily; at the end of the study (4 h after the last dose), the mice were euthanized and the spleen and liver were collected, weighed and photographed. • The results are shown in FIG. 1.

A short description of data set [2]: Pharmacokinetic study in mice. Format: in vivo, male C57BL/6J mice. Particulars: male, C57BL/6J, plasma, mouse. The source says:
(§2) This study was intended to explore the pharmacokinetics of the test compound in the plasma of male C57BL/6J mice and SD rats after intravenous and oral administrations.
(§3) The animals were randomized into two groups of 3 male animals. The compounds were formulated as designated (vehicle: 0.5% MC), i.e., clear solutions for intravenous injection and clear or homogeneous suspensions for oral formulations.
(§4) Animal whole blood samples were collected by jugular vein puncture or from saphenous vein at 5 min, 15 min and 30 min and 1 h, 2 h, 4 h, 6 h and 8 h post-dose. The whole blood samples were added to centrifuge tubes containing anticoagulant and centrifuged at 4° C., 3000 g for 15 min. The plasma supernatant was taken and quickly frozen on dry ice and stored in a freezer at −70±10° C. before LC-MS/MS analysis.
(§5) Plasma drug concentration data for compounds were processed in a non-compartmental model using WinNonlin™ Version 6.3.0 (Pharsight, Mountain View, CA) pharmacokinetic software. Peak concentration (Cmax) and time to peak (Tmax) and time of the last quantifiable concentration were directly obtained from the plasma concentration-time curve.
(§6) The following pharmacokinetic parameters were calculated using the log-linear trapezoidal method: plasma clearance (CL), volume of distribution (Vd), elimination phase half-life (T1/2), mean retention time of the compound from point 0 to the last time point (MRT0-last), mean retention time of the compound from point 0 to infinite (MRT0-inf), area under the time-plasma concentration curve from point 0 to the last time point (AUC0-last), area under the time-plasma concentration curve from point 0 to infinite (AUC0-inf) and bioavailability (F).

The next data set concerns MDR1-MDCK. In words: Permeability study (MDR1-MDCK), bi-directional transport. Conditions: conclusion in words. It is filed as in vitro ADME.
In the next data set the target is CSF-1R (Homo sapiens (Human), UniProt P07333). In words: In vitro enzymatic inhibitory activity, CSF-1R kinase (33P-ATP filter-binding). Format: biochemical. Conditions: CSF-1R 2.5 nM, 2 h room temperature. The method, then:
Basic reaction buffer: 20 mM hydroxyethylpiperazine ethane sulfonic acid (pH 7.5), 10 mM magnesium chloride, 1 mM EGTA, 0.02% Brij35, 0.02 mg/mL bovine serum albumin, 0.1 mM
Na3VO4, 2 mM DTT, 1% DMSO
Necessary cofactors were separately added to the CSF-1R kinase reaction.
The test compounds were prepared into solutions of specified concentrations in 100% DMSO, and the solutions were serially diluted in DMSO using the Integra Viaflo Assist.
1. A fresh medium preparation reaction buffer was prepared;
2. All necessary cofactors were added to the reaction buffer described above;
3. The kinase was added into the medium solution and the mixture was shaked gently;
4. Solutions of the compounds in DMSO were added to the kinase reaction mixture using an acoustic technique (Echo550; in nanoliter range), and the system was incubated at room temperature for 20 min;
5. ^33P-ATP (specific activity: 10 μCi/μL) was added to the reaction mixture to initiate the reaction;
6. The mixture was incubated for 2 h at room temperature;
7. The kinase activity was detected by a filter-binding method;
8. The kinase activity IC50 values and the curves were obtained by comparison with the other kinases and the vehicle (DMSO) group using Prism (GraphPad software).

Data set [3] can be described thus: Pharmacokinetic study in rats. It is filed as in vivo. Particulars: male, SD, plasma, rat.
From the text: as §2, §3, §4, §5, §6

Another data set concerns the target CYP1A2 (Homo sapiens (Human), UniProt P05177). In words: Cytochrome enzyme inhibition study, CYP1A2. It is filed as in vitro ADME. Particulars: human liver microsomes, mixed probe substrate; read-out: CYP inhibition (IC50, μM) 1A2. The method, then: as §1

Structures are written as SMILES. Where a name gives a salt, the structure may show the parent alone. A value given as a limit tells only on which side of the number the result lay.

Chain of CSF-1R (P07333 20-972): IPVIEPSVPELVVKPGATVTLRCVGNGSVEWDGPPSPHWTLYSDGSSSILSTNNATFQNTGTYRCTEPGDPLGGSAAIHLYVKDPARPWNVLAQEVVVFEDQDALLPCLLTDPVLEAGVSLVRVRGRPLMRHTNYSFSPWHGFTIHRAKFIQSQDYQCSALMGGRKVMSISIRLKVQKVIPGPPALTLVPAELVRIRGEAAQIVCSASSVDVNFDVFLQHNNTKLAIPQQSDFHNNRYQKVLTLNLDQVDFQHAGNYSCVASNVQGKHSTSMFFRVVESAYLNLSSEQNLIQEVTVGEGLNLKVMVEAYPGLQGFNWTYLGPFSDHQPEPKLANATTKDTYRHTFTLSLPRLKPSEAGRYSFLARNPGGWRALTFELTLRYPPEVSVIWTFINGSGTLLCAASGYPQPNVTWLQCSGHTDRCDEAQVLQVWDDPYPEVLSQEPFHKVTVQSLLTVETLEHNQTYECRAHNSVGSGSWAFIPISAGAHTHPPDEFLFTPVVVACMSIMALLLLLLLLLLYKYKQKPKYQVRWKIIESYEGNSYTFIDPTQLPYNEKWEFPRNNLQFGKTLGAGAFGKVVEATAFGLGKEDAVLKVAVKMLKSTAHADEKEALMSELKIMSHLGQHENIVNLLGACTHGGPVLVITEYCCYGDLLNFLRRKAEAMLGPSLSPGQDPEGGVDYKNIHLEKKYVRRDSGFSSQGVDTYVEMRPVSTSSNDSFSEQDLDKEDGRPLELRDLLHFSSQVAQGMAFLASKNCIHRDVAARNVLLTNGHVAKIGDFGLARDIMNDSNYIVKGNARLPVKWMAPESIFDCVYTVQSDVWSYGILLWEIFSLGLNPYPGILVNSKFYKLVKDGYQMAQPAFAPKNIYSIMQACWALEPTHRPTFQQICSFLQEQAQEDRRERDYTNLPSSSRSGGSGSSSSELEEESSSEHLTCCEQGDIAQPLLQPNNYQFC
Chain of CYP1A2 (P05177 whole entry): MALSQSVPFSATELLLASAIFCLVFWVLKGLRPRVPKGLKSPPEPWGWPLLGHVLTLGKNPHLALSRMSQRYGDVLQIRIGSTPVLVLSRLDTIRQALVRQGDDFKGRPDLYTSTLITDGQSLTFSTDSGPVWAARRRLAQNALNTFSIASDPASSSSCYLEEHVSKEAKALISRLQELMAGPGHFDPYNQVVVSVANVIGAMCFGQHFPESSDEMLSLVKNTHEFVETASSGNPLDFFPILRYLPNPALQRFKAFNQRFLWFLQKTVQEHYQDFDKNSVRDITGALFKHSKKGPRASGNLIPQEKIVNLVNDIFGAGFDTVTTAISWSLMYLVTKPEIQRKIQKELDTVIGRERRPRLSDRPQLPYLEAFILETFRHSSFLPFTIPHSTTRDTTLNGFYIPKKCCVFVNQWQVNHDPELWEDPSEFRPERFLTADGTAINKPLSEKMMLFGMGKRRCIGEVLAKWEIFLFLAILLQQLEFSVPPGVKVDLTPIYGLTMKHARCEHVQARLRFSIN
Chain of CYP2C19 (P33261 whole entry): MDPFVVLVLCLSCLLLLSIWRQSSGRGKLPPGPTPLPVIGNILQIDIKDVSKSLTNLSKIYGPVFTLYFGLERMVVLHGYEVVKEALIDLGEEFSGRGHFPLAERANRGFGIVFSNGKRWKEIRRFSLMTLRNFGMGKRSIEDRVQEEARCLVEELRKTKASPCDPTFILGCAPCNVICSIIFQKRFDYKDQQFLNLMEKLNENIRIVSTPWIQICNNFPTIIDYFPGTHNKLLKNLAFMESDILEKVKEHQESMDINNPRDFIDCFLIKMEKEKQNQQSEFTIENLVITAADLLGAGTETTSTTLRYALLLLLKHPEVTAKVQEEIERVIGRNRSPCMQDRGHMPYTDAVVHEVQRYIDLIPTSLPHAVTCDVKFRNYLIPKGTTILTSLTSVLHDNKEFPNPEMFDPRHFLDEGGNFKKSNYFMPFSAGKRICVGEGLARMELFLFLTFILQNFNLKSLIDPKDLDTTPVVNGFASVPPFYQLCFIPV
Chain of CYP3A4 (P08684 whole entry): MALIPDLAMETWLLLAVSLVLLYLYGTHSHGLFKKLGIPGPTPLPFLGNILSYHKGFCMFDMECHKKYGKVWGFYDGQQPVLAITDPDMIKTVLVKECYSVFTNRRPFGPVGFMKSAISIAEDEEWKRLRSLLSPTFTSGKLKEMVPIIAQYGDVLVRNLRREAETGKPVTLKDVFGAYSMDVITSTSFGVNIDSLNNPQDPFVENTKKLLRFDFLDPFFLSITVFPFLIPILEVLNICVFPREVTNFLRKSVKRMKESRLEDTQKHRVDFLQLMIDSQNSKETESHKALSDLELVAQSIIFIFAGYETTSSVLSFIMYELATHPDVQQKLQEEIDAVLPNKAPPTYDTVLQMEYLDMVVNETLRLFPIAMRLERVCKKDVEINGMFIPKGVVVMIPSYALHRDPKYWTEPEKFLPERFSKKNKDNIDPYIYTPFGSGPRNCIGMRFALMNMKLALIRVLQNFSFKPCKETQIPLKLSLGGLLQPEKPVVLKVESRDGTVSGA
Chain of CYP2C9 (P11712 whole entry): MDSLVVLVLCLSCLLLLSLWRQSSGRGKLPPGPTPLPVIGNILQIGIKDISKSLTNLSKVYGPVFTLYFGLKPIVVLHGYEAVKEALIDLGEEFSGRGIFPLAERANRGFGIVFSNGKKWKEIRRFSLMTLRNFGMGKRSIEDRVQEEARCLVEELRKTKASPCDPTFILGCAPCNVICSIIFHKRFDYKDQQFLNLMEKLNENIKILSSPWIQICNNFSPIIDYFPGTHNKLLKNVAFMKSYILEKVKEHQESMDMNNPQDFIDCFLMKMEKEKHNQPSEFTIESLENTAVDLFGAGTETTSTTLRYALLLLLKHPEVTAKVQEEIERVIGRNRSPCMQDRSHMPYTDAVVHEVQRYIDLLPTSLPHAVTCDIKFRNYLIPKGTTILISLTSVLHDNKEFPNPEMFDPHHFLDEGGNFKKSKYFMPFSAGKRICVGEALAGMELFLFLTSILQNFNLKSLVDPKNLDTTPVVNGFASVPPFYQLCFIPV
Chain of CYP2D6 (P10635 whole entry): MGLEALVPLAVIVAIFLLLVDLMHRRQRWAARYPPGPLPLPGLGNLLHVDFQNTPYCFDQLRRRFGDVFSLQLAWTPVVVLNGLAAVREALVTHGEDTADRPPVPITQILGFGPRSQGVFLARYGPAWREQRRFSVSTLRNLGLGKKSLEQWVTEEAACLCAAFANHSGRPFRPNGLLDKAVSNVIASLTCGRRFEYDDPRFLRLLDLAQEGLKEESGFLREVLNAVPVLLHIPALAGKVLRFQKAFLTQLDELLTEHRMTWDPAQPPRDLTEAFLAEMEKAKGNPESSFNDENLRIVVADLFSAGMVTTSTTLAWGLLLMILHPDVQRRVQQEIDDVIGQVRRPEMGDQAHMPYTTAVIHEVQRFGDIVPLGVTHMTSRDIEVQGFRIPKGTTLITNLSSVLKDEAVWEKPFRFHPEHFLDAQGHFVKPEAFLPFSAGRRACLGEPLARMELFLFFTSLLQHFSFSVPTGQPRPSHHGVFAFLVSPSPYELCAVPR

Regarding `CNC(=O)c1nccc2c(-c3cnc(Nc4ccc(OC5CC5)nc4)cc3C)c[nH]c12` [Compound 1 hydrochloride], the IC50 on CYP2C9 was 11.6 µM; at CYP2D6, over 50 µM; at CYP2C19, 21 µM; on CYP3A4, 28 µM; at CSF-1R it was 1.13 nM; on CYP1A2, over 50 µM. The “efficacy in TEL-CSF1R-BaF3 cell splenomegaly assay” value in [1] (1 mpk, comparable to PLX-3397 (10 mg/kg)) is recorded as “significant efficacy”; in [1] (10 mpk), “significant advantage”. Moreover, in [1] (high, medium and low doses (10, 3, 1 mg/kg p.o. QD)), the “dose-dependence in TEL-CSF1R-BaF3 cell splenomegaly assay” value is “clear dose-dependence”. For the same compound, the AUC(0-t) was 168 µM·h in [2] (1 mg/kg, IV, 1 mpk); 1650 µM·h in [2] (10 mg/kg, PO, 10 mpk); 66 µM·h in [3] (1 mg/kg, IV, 1 mpk); 249 µM·h in data set [3] (3 mg/kg, PO, 3 mpk). For the same compound, the Vd in data set [2] (1 mg/kg, IV, 1 mpk) stood at 0.15 L/kg; in data set [3] (1 mg/kg, IV, 1 mpk) it was 0.2 L/kg. In addition, the clearance in data set [2] (1 mg/kg, IV, 1 mpk) is 0.2 mL/min/kg; in data set [3] (1 mg/kg, IV, 1 mpk), 0.61 mL/min/kg. Also, the half-life is 8.62 h in [2] (1 mg/kg, IV, 1 mpk) and 3.4 h in [3] (1 mg/kg, IV, 1 mpk). Also, the Cmax in [2] (10 mg/kg, PO, 10 mpk) was determined as 117 µM; in data set [3] (3 mg/kg, PO, 3 mpk), 27.4 µM. In addition, the Tmax stood at 3 h in data set [2] (10 mg/kg, PO, 10 mpk) and 2 h in data set [3] (3 mg/kg, PO, 3 mpk). Further, the bioavailability came out at 98% in data set [2] (10 mg/kg, PO, 10 mpk) and 129% in [3] (3 mg/kg, PO, 3 mpk). Further, the “permeability compared with PLX-3397” value in the data set on MDR1-MDCK is “higher than that of PLX-3397”.

Compound `CNC(=O)c1nccc2c(-c3cnc(Nc4ccc(OC5CC5)nc4)cc3C)cn(C)c12` [Compound 2 hydrochloride] returned a half-inhibitory concentration (IC50) on CSF-1R of 26.8 nM.

In the case of `CNC(=O)c1nccc2c(-c3cnc(Nc4ccc(OC(C)C)cc4)cc3C)c[nH]c12` [Compound 3 hydrochloride], at CSF-1R, the IC50 came to 34 nM.

At CSF-1R, `CNC(=O)c1nccc2c(-c3cnc(Nc4ccc(C)nc4)cc3C)c[nH]c12` [Compound 6 hydrochloride] returned an IC50 of 30 nM.

`CNC(=O)c1nccc2c(-c3cnc(Nc4ccc(OC)nc4)cc3C)c[nH]c12` [Compound 7 hydrochloride]: the IC50 at CSF-1R worked out at 26 nM.

Compound `CNC(=O)c1nccc2c(-c3cnc(Nc4ccc(OC)cc4)cc3C)c[nH]c12` [Compound 8 hydrochloride] returned an IC50 at CSF-1R of 10 nM.

In the case of `Cl.FC(F)(F)c1ccc(CNc2ccc(Cc3c[nH]c4ncc(Cl)cc34)cn2)cn1` [PLX-3397, Pexidartinib, reference compound], the half-maximal inhibitory concentration (IC50) at CYP2C9 is 3.81 µM; on CYP2D6, 8.77 µM; on CYP2C19, 8.32 µM; on CYP3A4, over 35.6 µM; at CYP1A2, 24 µM. For the same compound, the exposure AUC(0-t) in data set [2] (1 mg/kg, IV, 1 mpk) stood at 29 µM·h; in [2] (10 mg/kg, PO, 10 mpk), 131 µM·h; in data set [3] (1 mg/kg, IV, 1 mpk), 8.49 µM·h; in data set [3] (10 mg/kg, PO, 10 mpk), 70.2 µM·h. The Vd in [2] (1 mg/kg, IV, 1 mpk) is 0.265 L/kg; in data set [3] (1 mg/kg, IV, 1 mpk), 0.613 L/kg. Also, the clearance in data set [2] (1 mg/kg, IV, 1 mpk) came out at 0.927 mL/min/kg; in [3] (1 mg/kg, IV, 1 mpk) it was 4.64 mL/min/kg. The half-life in data set [2] (1 mg/kg, IV, 1 mpk) is 3.33 h; in data set [3] (1 mg/kg, IV, 1 mpk), 1.27 h. Further, the Cmax in [2] (10 mg/kg, PO, 10 mpk) was determined as 17.2 µM; in data set [3] (10 mg/kg, PO, 10 mpk), 10.7 µM. Further, the Tmax in [2] (10 mg/kg, PO, 10 mpk) worked out at 4 h; in [3] (10 mg/kg, PO, 10 mpk), 1.5 h. The bioavailability in [2] (10 mg/kg, PO, 10 mpk) was 74.1%; in data set [3] (10 mg/kg, PO, 10 mpk) it was 81%.
